Measured values: paper PMC8414367, “(E)-7-Ethylidene-lithocholic Acid (7-ELCA) Is a Potent Dual Farnesoid X Receptor (FXR) Antagonist and GPBAR1 Agonist Inhibiting FXR-Induced Gene Expression in Hepatocytes and Stimulating Glucagon-like Peptide-1 Secretion From Enteroendocrine Cells” (Frontiers in Pharmacology, 2021)
Where “and” joins values, the source holds several entries; their conditions need not be identical. Equal values may be shown once. Entries after “also recorded” stand apart in the source; their conditions may differ. Read-outs that look alike come from different tables or passages of the source.

Assays:
[1] = target: T1, human FXR (Homo sapiens, UniProt Q96RI1); assay: FXR luciferase reporter gene assay (FXRE-luc) in HepG2 cells, antagonistic mode; format: cell-based; conditions: for IC50: HepG2, co-treatment with 1 µM OCA, 24 h, read-out: IC50, inhibition of OCA-induced FXR activation
T1 sequence (Q96RI1 1-486): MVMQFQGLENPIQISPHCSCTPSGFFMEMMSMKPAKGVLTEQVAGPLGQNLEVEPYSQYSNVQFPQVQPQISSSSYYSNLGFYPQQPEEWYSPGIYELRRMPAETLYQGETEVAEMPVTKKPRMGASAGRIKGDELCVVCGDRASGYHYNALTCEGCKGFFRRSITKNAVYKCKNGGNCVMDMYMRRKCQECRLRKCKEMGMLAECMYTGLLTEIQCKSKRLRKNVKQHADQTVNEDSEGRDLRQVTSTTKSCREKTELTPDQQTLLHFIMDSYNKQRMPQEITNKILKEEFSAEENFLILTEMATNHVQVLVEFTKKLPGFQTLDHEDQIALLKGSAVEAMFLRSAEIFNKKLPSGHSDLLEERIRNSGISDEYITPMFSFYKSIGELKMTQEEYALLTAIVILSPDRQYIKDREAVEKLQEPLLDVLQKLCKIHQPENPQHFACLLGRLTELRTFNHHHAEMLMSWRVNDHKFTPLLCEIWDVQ
T1 sequence (P19793 1-462 partner): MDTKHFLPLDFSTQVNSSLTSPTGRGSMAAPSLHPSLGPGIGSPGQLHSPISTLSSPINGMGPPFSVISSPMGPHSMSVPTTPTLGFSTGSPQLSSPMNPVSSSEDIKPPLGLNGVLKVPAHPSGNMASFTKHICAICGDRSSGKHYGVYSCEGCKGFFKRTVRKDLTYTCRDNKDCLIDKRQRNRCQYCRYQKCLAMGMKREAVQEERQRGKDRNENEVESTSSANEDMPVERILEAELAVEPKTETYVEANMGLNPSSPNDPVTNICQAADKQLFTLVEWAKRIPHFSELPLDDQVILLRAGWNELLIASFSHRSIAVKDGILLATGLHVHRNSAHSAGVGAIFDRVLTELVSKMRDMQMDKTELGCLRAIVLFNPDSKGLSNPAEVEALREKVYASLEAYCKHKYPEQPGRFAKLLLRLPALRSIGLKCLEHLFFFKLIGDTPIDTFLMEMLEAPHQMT

[2] = target: T2, FXR LBD (Homo sapiens, UniProt Q96RI1); assay: LanthaScreen TR-FRET FXR Coactivator Assay, antagonistic mode (SRC-2 peptide recruitment); format: biochemical
T2 construct: purchased ThermoFisher Scientific PV4833
T2 sequence (Q96RI1 262-486 limits assumed): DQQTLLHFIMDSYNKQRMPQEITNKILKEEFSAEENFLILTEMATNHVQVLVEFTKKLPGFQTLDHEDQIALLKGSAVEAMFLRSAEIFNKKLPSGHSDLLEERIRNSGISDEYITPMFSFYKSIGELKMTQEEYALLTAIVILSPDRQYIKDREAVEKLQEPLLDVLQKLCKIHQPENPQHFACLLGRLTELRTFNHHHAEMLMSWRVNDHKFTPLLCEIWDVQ
Protocol: The LanthaScreen® TR-FRET FXR Coactivator Assay (goat, PV4833, ThermoFisher Scientific) was performed to assess the affinity of tested compounds to FXR ligand-binding domain (LBD) in agonistic and antagonistic models. In the antagonistic assays, the FXR LBD was co-incubated with OCA or GW4064, together with tested ligands in increasing concentrations. The assay was performed according to the manufacturer’s protocols. […] Data have been obtained from three independent experiments performed in 4 replicates.

[3] = target: PPARα (Homo sapiens, UniProt Q07869); assay: Nuclear receptor specificity luciferase reporter assay in HepG2 cells
Sequence of PPARα (Q07869 239-466 limits assumed): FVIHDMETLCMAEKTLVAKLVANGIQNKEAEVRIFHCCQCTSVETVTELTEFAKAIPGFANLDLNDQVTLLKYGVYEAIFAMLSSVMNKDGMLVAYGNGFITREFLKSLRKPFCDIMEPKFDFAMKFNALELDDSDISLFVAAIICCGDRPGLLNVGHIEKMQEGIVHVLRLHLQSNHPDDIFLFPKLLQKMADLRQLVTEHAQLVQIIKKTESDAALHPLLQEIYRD
Protocol: (§1) For transient transfection, HepG2 cells were seeded at the density of 40,000 cells/cm^2. […] The next day, cells were challenged with tested ligands in indicated concentrations for 5 h. […] All the other transient transfection reporter gene assays were performed with Lipofectamine® 3000 (ThermoFisher Scientific). Briefly, cells were transfected with 150 ng/well luciferase reporter gene constructs (p(DR3)3-luc, SHP-luc, p3A4-luc, pTAT-(GRE)2-TK-luc, p2B6-luc, pGL4.35[luc2P⁄9XGAL4UAS⁄Hygro]), FXRE-luc together with 100 ng/well of the corresponding full-length fragment nuclear receptor expression vectors (pSG5-hVDR, pSG5-hFXR, pSG5-hRXRα, pSG5-hPXR, CAR3 variant) or the ligand binding domains of human, pCMX-GAL4-hFXR, pCMX-GA4L-LXRα, pCMX-GA4L-LXRα, pCMX-GA4L-TRα, pCMX-GA4L-PPARα, pCMX-GAL4-PPARγ, pCMX-GAL4-PPARδ) and 30 ng/well of pRL-TK Renilla luciferase vector 24 h prior to the treatment. […] The firefly luciferase activity was measured using the Dual Luciferase® Reporter Assay System (Promega) and normalized to Renilla luciferase activity. Experiments in an agonistic mode were performed with OCA, CDCA or tested compounds (all compounds at 10 μM). […] EC50 and IC50 were calculated using GraphPad PRISM ver. […]
(§2) Data were normalized to Renilla luciferase activity and are expressed as fold activation relative to control (nontreated, NT) cells. […]

[4] = system: NCI-H716 cells; assay: cAMP determination (cAMP-Glo) in differentiated NCI-H716 cells; format: cell-based, human; conditions: 10 µM, 30 min, compared to 10 µM LCA
Protocol: Differentiated NCI-H716 cells were serum-starved, washed in PBS, and the cell culture medium was changed to Hanks' Balanced Salt solution (HBSS) supplemented with 0.2% (w/v) BSA and 500 µM 3-isobutyl-1-methylxanthine and incubated for 45 min at 37°C. Cells were stimulated with tested compounds or forskolin for 30 min, and the amount of cAMP generated was measured using the cAMP-Glo™ Assay (V1501, Promega, […], United States). The changes in cAMP levels (ΔcAMP) are presented as cAMP levels in treated samples after subtraction of the cAMP levels in the nontreated (NT) samples.
FIGURE 8 Effects of 7-alkylated derivatives of CDCA and 7-ELCA on the membrane receptor GPBAR1. […] . (B) CRE-luc activation depends on the presence of GPBAR1. (C) Effects of LCA and 7-ELCA (both at 10 µM) on intracellular generation of cAMP in differentiated NCI-H716 cells after 30 min treatment. The increase in cAMP level (ΔcAMP) is presented as the difference between cAMP concertation in the treated sample after subtraction of the cAMP in the nontreated control sample. (D) Concentration-response curves for activation of GPBAR1 by LCA and 7-ELCA. EC50 values were calculated using nonlinear fitting of concentration-response curves. […] (G) 7-ELCA (10 µM) increases GLP-1 secretion in siRNA control but not in siRNA Gpbar1 transfected GLUTag cells after 1 h treatment. […]

[5] = target: T3, GPBAR1 Ser270Gly (Homo sapiens, UniProt Q8TDU6, S270G); assay: CRE-luc reporter assay with mutated GPBAR1 variant in HepG2 cells; format: cell-based
T3 construct: expressed in transfected cells; host or cells: HepG2
T3 sequence (Q8TDU6 whole entry S270G): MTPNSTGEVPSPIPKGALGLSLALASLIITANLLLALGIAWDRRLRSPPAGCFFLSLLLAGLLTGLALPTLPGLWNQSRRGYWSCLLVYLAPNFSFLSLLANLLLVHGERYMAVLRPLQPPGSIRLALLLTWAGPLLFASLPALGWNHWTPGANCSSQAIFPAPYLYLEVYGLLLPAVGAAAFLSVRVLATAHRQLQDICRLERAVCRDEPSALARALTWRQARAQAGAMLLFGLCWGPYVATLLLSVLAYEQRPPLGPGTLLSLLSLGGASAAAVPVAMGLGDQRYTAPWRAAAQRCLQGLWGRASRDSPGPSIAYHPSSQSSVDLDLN

[6] = system: NCI-H716 cells; assay: GLP-1 secretion (ELISA) in differentiated NCI-H716 cells; format: cell-based, human; conditions: 10 µM, 2 h, listed as 7-ELCA
[7] = target: glucocorticoid receptor (GR) (Homo sapiens, UniProt P04150); assay: Nuclear receptor specificity luciferase reporter assay in HepG2 cells
Sequence of glucocorticoid receptor (GR) (P04150 whole entry): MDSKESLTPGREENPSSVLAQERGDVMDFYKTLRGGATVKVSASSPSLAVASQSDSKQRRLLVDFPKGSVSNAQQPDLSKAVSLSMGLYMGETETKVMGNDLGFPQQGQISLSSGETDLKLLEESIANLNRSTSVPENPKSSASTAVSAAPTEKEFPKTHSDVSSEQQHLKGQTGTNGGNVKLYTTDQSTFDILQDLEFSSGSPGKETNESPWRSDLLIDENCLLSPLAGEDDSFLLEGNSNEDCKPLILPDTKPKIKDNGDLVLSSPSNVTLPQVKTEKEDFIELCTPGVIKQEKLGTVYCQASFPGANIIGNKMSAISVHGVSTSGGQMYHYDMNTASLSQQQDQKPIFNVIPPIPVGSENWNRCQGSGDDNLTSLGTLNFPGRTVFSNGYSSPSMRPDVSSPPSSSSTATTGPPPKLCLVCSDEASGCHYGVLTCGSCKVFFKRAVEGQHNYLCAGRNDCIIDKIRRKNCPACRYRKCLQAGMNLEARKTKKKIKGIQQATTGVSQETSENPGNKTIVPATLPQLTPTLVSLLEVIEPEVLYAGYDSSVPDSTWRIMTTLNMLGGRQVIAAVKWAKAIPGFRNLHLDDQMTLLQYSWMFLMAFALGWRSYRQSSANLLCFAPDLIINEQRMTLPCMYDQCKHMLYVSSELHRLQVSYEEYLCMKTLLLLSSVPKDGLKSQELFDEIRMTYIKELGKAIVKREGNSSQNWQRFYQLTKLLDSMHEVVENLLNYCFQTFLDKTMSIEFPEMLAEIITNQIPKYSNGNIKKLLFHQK
Protocol: as §1, §2

[8] = target: pregnane X receptor (PXR) (Homo sapiens, UniProt O75469); assay: as above
Sequence of pregnane X receptor (PXR) (O75469 whole entry): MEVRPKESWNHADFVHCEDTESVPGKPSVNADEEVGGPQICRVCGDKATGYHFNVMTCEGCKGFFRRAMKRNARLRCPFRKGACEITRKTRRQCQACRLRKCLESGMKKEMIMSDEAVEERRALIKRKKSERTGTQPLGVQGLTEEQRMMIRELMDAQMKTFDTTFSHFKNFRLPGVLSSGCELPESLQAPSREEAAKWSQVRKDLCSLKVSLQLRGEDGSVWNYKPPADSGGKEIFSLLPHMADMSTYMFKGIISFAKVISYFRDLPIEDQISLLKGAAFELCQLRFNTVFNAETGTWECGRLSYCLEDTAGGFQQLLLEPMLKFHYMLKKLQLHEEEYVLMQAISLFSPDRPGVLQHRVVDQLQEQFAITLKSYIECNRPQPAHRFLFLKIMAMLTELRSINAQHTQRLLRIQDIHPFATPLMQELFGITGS
Protocol: as §1, §2

[9] = GW4064 1 µM, read-out: IC50, inhibition of GW4064-promoted interaction of SRC-2 and FXR
[10] = OCA 1 µM, read-out: IC50, inhibition of OCA-induced recruitment of SRC-2 to FXR LBD
[11] = HepG2, read-out: relative response (%) to the model FXR ligand activation (set to be 100%), GW4064 1 µM

With `CCC[C@@]1(O)C[C@@H]2C[C@H](O)CC[C@]2(C)C2CC[C@@]3(C)C(CC[C@@H]3[C@H](C)CCC(=O)O)C21` (stereo partly drawn) [2f, 3α,7α-Dihydroxy-7β-propyl-5β-cholan-24-oic acid] the IC50 [1] was 20.5 ± 1 µM, the inhibition at 100 µM ([1]; HepG2, at 100 µM, with 1 µM OCA, read-out: inhibition of FXR activation) was roughly 85% and the remaining activity at 10 µM ([1]; HepG2, tested compound 10 µM, GW4064 1 µM, read-out: relative response (%) to the model FXR ligand activation (set to be 100%), GW4064 1 µM) was 85.7 ± 11.2%. It also gave a remaining activity at 40 µM ([1]; HepG2, tested compound 40 µM, CDCA 20 µM, * = significant effect on cellular viability, read-out: relative response (%) to the model FXR ligand activation (set to be 100%), CDCA 20 µM) of 96.4 ± 0.7%, a remaining activity at 40 µM ([1]; HepG2, tested compound 40 µM, GW4064 1 µM, * = significant effect on cellular viability, read-out: relative response (%) to the model FXR ligand activation (set to be 100%), GW4064 1 µM) of 61.7 ± 10.8% and a melting point of 100 to 105 °C. It also gave an IC50 [2, 9] of 13.8 ± 2.5 µM and an IC50 [2, 10] of 26.5 ± 2 µM.

For `C/C=C1\C[C@@H]2C[C@H](O)CC[C@]2(C)[C@H]2CC[C@]3(C)[C@@H]([C@H](C)CCC(=O)O)CC[C@H]3[C@H]12` [2a, (E)-3α-Hydroxy-7-ethylidene-5β-cholan-24-oic acid], the “antagonism of PPARα activation by model ligand” value ([3]; 10 µM, with fenofibrate 1 µM) was “did not antagonize”, the “activation of PPARα” value ([3]; agonistic assay, 24 h) was “did not activate” and the IC50 [1] was 15 µM and 15.1 µM. The inhibition at 100 µM ([1]; HepG2, read-out: inhibition of FXR activation) was roughly 95%, the remaining activity at 40 µM ([1]; HepG2, read-out: relative response (%) to the model FXR ligand activation (set to be 100%), CDCA 20 µM) was 67.3 ± 0.6% and the remaining activity at 10 µM [1, 11] was 82.9 ± 2.3%. For the same molecule, the remaining activity at 40 µM [1, 11] was 51.1 ± 2.9%, the “capacity to antagonize OCA-stimulated FXR activation (in words)” value ([1]; with 1 µM OCA, Figure 3B) was “most potent FXR antagonist” and the “intracellular generation of cAMP” value [4] was “more significant production of cAMP”. The “CRE-luc activation via GPBAR1 Ser270Gly” value [5] was “partially preserved”, the GLP-1 secretion [6] was “significant increase of GLP-1 secretion; also recorded: significantly stronger compared to LCA” and the melting point was 67 to 72 °C. The “antagonism of GR activation by model ligand” value ([7]; 10 µM, with dexamethasone 50 nM) was “did not antagonize”, the “activation of GR” value ([7]; agonistic assay, 24 h) was “did not activate” and the IC50 [2, 9] was 6.6 ± 2.9 µM. For the same molecule, the IC50 [2, 10] was 18 ± 2.7 µM, the “antagonism of PXR activation by model ligand” value ([8]; 10 µM, with rifampicin 1 µM) was “did not antagonize” and the “activation of PXR” value ([8]; agonistic assay, 24 h) was “did not activate”.
